In patent US12582654B2, “Cyano-substituted pyridine and cyano-substituted pyrimidine compound and preparation method therefor and application thereof” (BEIJING SCITECH-MQ PHARMACEUTICALS LIMITED, priority 2019, dated 2026):

Key:
FGFR4 V550L kinase = FGFR4 V550L kinase (Homo sapiens, UniProt P22455, V550L); experiment: Inhibition of FGFR4 V550L mutant kinase activity (ULight-labeled PolyGT, EU665/EU615 reading); type: biochemical; settings: FGFR4 V550L kinase 1 nM, ATP 10 μM, enzymatic reaction 2 hours
How it was run: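 TR-FRET kinase assay: 1 nM FGFR4 V550L, 10 μM ATP, 100 nM ULight-PolyGT substrate, 2 h at room temperature after 5 min compound–enzyme preincubation, 1% DMSO. Compound tested as 11-point 3-fold dilution from 2.5 μM to 0.042 nM final. Signal as EU665/EU615 ratio; IC50 fitted from % inhibition.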

Ba/F3 ETV6-FGFR4 cells = target: T1, Ba/F3 ETV6-FGFR4 cells (Homo sapiens, UniProt P22455); experiment: Inhibition of cell proliferation (CCK-8), Ba/F3 ETV6-FGFR4 cells; type: cell-based; settings: 72 hours of incubation, read-out: Ba/F3 ETV6-FGFR4 IC50
T1 construct: fused on or other part: N-terminal part of ETV6 (TEL), the oligomerising partner that makes the FGFR4 kinase constitutively active; P41212 (Transcription factor ETV6)
How it was run: (§1)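 Ba/F3 cells expressing ETV6-FGFR4 or ETV6-FGFR4-V550L exposed for 72 h to 9 concentrations from 4-fold serial dilution (0.25% DMSO final). Viability by CCK-8, OD 450 nm after 1–2 h at 37 °C, relative to untreated and cell-free blanks; IC50 from curve fitting.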

FGFR4 kinase = FGFR4 kinase (Homo sapiens, UniProt P22455); experiment: Inhibition of FGFR4 kinase activity (ULight-labeled JAK-1 peptide, EU665/EU615 reading); type: biochemical; settings: FGFR4 kinase 3.85 nM, ATP 100 μM, enzymatic reaction 2 hours
How it was run: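 TR-FRET kinase assay using 3.85 nM FGFR4, 100 μM ATP and 100 nM ULight-JAK-1 (Tyr1023) peptide; 5 min enzyme–compound preincubation, then 2 h at room temperature. Compounds at 11 3-fold dilutions from 2.5 μM down to 0.042 nM, 1% DMSO. IC50 from EU665/EU615 ratio inhibition curves.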

[1] = target: T2, Ba/F3 ETV6-FGFR4-V550L cells (Homo sapiens, UniProt P22455, V550L, cells depend on it); experiment: Inhibition of cell proliferation (CCK-8), Ba/F3 ETV6-FGFR4-V550L cells; type: cell-based; settings: 72 hours of incubation, read-out: Ba/F3 ETV6-FGFR4-V550L IC50
T2 construct: fused on or other part: N-terminal part of ETV6 (TEL), the oligomerising partner of the fusion; already named as the first entry; P41212 (Transcription factor ETV6)
How it was run: as §1

Sequence of FGFR4 kinase (P22455 22-802): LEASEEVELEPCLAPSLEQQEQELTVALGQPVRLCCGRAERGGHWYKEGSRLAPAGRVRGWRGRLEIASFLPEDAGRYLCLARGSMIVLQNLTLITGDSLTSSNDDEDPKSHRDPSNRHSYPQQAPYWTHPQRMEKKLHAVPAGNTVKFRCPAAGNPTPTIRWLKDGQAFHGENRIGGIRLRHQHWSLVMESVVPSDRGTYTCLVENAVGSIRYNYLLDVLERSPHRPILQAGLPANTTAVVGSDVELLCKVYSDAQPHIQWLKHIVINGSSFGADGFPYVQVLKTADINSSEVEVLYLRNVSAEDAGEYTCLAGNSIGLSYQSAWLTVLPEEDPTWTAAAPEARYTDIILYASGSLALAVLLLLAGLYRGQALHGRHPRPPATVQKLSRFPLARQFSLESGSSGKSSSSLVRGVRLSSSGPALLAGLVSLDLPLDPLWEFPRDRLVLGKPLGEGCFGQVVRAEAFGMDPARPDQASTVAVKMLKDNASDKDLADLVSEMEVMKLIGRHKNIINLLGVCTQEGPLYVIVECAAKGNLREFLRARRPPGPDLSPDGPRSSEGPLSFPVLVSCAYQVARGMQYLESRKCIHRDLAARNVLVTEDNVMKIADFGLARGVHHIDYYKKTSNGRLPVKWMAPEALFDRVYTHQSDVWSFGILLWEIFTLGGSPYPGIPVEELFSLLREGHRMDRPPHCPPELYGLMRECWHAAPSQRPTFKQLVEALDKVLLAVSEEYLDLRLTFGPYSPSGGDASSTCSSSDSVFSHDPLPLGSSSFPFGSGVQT
T2 sequence (P22455 whole entry V550L, the tested form may be a part): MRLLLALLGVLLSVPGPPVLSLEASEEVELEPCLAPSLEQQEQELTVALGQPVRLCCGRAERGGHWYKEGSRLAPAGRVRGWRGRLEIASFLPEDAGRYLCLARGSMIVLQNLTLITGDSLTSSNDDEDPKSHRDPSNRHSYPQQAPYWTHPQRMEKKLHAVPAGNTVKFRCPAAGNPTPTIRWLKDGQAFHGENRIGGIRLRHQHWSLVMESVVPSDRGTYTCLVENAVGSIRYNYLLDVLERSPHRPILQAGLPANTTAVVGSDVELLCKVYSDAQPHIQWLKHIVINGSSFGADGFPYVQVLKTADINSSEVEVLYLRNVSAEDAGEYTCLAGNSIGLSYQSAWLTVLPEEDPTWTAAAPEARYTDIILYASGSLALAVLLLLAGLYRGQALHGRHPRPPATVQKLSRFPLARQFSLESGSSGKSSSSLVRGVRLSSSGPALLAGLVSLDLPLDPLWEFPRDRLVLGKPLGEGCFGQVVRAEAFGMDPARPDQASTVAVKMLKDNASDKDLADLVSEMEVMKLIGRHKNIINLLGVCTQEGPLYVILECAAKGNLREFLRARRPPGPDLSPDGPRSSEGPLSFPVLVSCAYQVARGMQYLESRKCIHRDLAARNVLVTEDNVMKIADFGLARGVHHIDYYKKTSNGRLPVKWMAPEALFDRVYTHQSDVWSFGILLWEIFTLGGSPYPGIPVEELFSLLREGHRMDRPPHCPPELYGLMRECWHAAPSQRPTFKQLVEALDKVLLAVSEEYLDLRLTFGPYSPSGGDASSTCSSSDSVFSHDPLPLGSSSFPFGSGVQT
Sequence of FGFR4 V550L kinase (P22455 22-802 V550L): as the sequence (P22455 22-802) above, with V529L counted along it
T1 sequence (P22455 whole entry, change not shown, the tested form may be a part): as the sequence (P22455 whole entry V550L, the tested form may be a part) above, with L550V counted along it

Row | Structure (SMILES) | IC50 (FGFR4 V550L kinase) [nM] | GI50 (Ba/F3 ETV6-FGFR4 cells) [nM] | IC50 (FGFR4 kinase) [nM] | GI50 [1] [nM]
1 | C=CC(=O)Nc1cc(N2CCC(N3CCN(C)C(=O)C3)CC2)ccc1Nc1ncc(C#N)c(Nc2ccccc2OC(C)C)n1 [Example 43, N-(2-((5-cyano-4-((2-isopropoxyphenyl)amino)pyrimidin-2-yl)amino)-5-(4-(4-methyl-3-oxopiperazin-1-yl)piperidin-1-yl)phenyl) acrylamide] | 10 to 50 | ≤ 10 | 10 to 50 | ≤ 10
2 | C=CC(=O)Nc1cc(N2CCC(N3CCN(C)C(=O)C3)CC2)c(F)cc1Nc1ncc(C#N)c(Nc2ccccc2OC(C)C)n1 [Example 44, N-(2-((5-cyano-4-((2-isopropoxyphenyl)amino)pyrimidin-2-yl)amino)-4-fluoro-5-(4-(4-methyl-3-oxopiperazin-1-yl)piperidin-1-yl)phenyl) acrylamide] | 10 to 50 | ≤ 10 | 10 to 50 | ≤ 10
3 | C=CC(=O)Nc1cc(N2CCC(N3CCN(C)C(=O)C3)CC2)ccc1Nc1ncc(C#N)c(Nc2ccc(F)cc2OC(C)C)n1 [Example 45, N-(2-((5-cyano-4-((4-fluoro-2-isopropoxyphenyl)amino)pyrimidin-2-yl)amino)-5-(4-(4-methyl-3-oxopiperazin-1-yl)piperidin-1-yl)phenyl) acrylamide] | 10 to 50 | ≤ 10 | 10 to 50 | ≤ 10
4 | C=CC(=O)Nc1cc(N2CCC(N3CCN(C)CC3=O)CC2)ccc1Nc1ncc(C#N)c(Nc2ccccc2OC(C)C)n1 [Example 46, N-(2-((5-cyano-4-((2-isopropoxyphenyl)amino)pyrimidin-2-yl)amino)-5-(4-(4-methyl-2-oxopiperazin-1-yl)piperidin-1-yl)phenyl) acrylamide] | 10 to 50 | ≤ 10 | 10 to 50 | ≤ 10
5 | C=CC(=O)Nc1cc(N2CCC(N3CCN(C)CC3=O)CC2)ccc1Nc1ncc(C#N)c(Nc2ccc(F)cc2OC(C)C)n1 [Example 47, N-(2-((5-cyano-4-((4-fluoro-2-isopropoxyphenyl)amino)pyrimidin-2-yl)amino)-5-(4-(4-methyl-2-oxopiperazin-1-yl)piperidin-1-yl)phenyl) acrylamide] | 10 to 50 | ≤ 10 | 10 to 50 | ≤ 10
6 | C=CC(=O)Nc1cc(N2CCC(N3CCN(C)CC3=O)CC2)c(F)cc1Nc1ncc(C#N)c(Nc2ccccc2OC(C)C)n1 [Example 48, N-(2-((5-cyano-4-((2-isopropoxyphenyl)amino)pyrimidin-2-yl)amino)-4-fluoro-5-(4-(4-methyl-2-oxopiperazin-1-yl)piperidin-1-yl)phenyl) acrylamide] | 10 to 50 | ≤ 10 | 10 to 50 | ≤ 10
7 | C=CC(=O)Nc1cc(N2CCN(C3CCN(C)CC3)CC2)ccc1Nc1ncc(C#N)c(Nc2ccccc2OC(C)C)n1 [Example 49, N-(2-((5-cyano-4-((2-isopropoxyphenyl)amino)pyrimidin-2-yl)amino)-5-(4-(1-methylpiperidin-4-yl)piperazin-1-yl)phenyl) acrylamide] | ≤ 10 | ≤ 10 | ≤ 10 | ≤ 10
8 | C=CC(=O)Nc1cc(N2CCC(N3CCN(C(C)=O)CC3)CC2)ccc1Nc1ncc(C#N)c(Nc2ccccc2OC(C)C)n1 [Example 50, N-(5-(4-(4-acetylpiperazin-1-yl)piperidin-1-yl)-2-((5-cyano-4-((2-isopropoxyphenyl)amino)pyrimidin-2-yl)amino)phenyl) acrylamide] | ≤ 10 | ≤ 10 | 10 to 50 | ≤ 10
9 | C=CC(=O)Nc1cc(N2CCC(N3CCN(S(C)(=O)=O)CC3)CC2)ccc1Nc1ncc(C#N)c(Nc2ccccc2OC(C)C)n1 [Example 51, N-(2-((5-cyano-4-((2-isopropoxyphenyl)amino)pyrimidin-2-yl)amino)-5-(4-(4-(methylsulfonyl)piperazin-1-yl)piperidin-1-yl)phenyl) acrylamide] | 10 to 50 | ≤ 10 | 100 to 1000 | ≤ 10
10 | C=CC(=O)Nc1cc(N2CCC(N3CCN(C)CC3)CC2)ccc1Nc1ncc(C#N)c(Nc2ccc(C(=O)O)cc2OC(C)C)n1 [Example 52, 4-((2-((2-acrylamido-4-(4-(4-methylpiperazin-1-yl)piperidin-1-yl)phenyl)amino)-5-cyanopyrimidin-4-yl)amino)-3-isopropoxybenzoic acid] | ≤ 10 | 100 to 1000 | ≤ 10 | 100 to 1000
11 | C=CC(=O)Nc1cc(N2CCC(N3CCN(C)CC3)CC2)c(OC)cc1Nc1ncc(C#N)c(Nc2ccccc2OC(C)C)n1 [Example 53, N-(2-((5-cyano-4-((2-isopropoxyphenyl)amino)pyrimidin-2-yl)amino)-4-methoxy-5-(4-(4-methylpiperazin-1-yl)piperidin-1-yl)phenyl) acrylamide] | ≤ 10 | ≤ 10 | 50 to 100 | ≤ 10
12 | C=CC(=O)Nc1cc(N(C)CCN(C)C)ccc1Nc1ncc(C#N)c(Nc2ccccc2OC(C)C)n1 [Example 54] | ≤ 10 | ≤ 10 | 10 to 50 | ≤ 10
13 | C=CC(=O)Nc1cc(N(C)CCN(C)C)c(OC)cc1Nc1ncc(C#N)c(Nc2ccccc2OC(C)C)n1 [Example 55, N-(2-((5-cyano-4-((2-isopropoxyphenyl)amino)pyrimidin-2-yl)amino)-5-((2-(dimethylamino)ethyl)(methyl)amino)-4-methoxyphenyl) acrylamide] | ≤ 10 | ≤ 10 | 10 to 50 | ≤ 10
14 | C=CC(=O)Nc1cc(N2CCC(N(C)CCOC)CC2)ccc1Nc1ncc(C#N)c(Nc2ccccc2OC(C)C)n1 [Example 56, N-(2-((5-cyano-4-((2-isopropoxyphenyl)amino)pyrimidin-2-yl)amino)-5-(4-((2-methoxyethyl) (methyl)amino)piperidin-1-yl)phenyl) acrylamide] | ≤ 10 | ≤ 10 | 10 to 50 | ≤ 10
15 | C=CC(=O)Nc1cc(N2CCC(N(C)CCN(C)C)CC2)ccc1Nc1ncc(C#N)c(Nc2ccccc2OC(C)C)n1 [Example 57, N-(2-((5-cyano-4-((2-isopropoxyphenyl)amino)pyrimidin-2-yl)amino)-5-(4-((2-(dimethylamino)ethyl)(methyl)amino)piperidin-1-yl)phenyl) acrylamide] | ≤ 10 | ≤ 10 | 10 to 50 | ≤ 10
16 | C=CC(=O)Nc1cc(N2CCC(N3CCN(CCOC)CC3)CC2)ccc1Nc1ncc(C#N)c(Nc2ccccc2OC(C)C)n1 [Example 58, N-(2-((5-cyano-4-((2-isopropoxyphenyl)amino)pyrimidin-2-yl)amino)-5-(4-(4-(2-methoxyethyl)piperazin-1-yl)piperidin-1-yl)phenyl) acrylamide] | ≤ 10 | ≤ 10 | 10 to 50 | ≤ 10
17 | C=CC(=O)Nc1cc(N2CCC(N3CCN(CCO)CC3)CC2)ccc1Nc1ncc(C#N)c(Nc2ccccc2OC(C)C)n1 [Example 59, N-(2-((5-cyano-4-((2-isopropoxyphenyl)amino)pyrimidin-2-yl)amino)-5-(4-(4-(2-hydroxyethyl)piperazin-1-yl)piperidin-1-yl)phenyl) acrylamide] | ≤ 10 | ≤ 10 | 10 to 50 | ≤ 10
18 | C=CC(=O)Nc1cc(N2CCC(N(C)CCO)CC2)ccc1Nc1ncc(C#N)c(Nc2ccccc2OC(C)C)n1 [Example 60, N-(2-((5-cyano-4-((2-isopropoxyphenyl)amino)pyrimidin-2-yl)amino)-5-(4-((2-hydroxyethyl) (methyl)amino)piperidin-1-yl)phenyl) acrylamide] | ≤ 10 | ≤ 10 | 10 to 50 | ≤ 10
19 | C=CC(=O)Nc1cc(N2CCC(N(C)CCF)CC2)ccc1Nc1ncc(C#N)c(Nc2ccccc2OC(C)C)n1 [Example 61, N-(2-((5-cyano-4-((2-isopropoxyphenyl)amino)pyrimidin-2-yl)amino)-5-(4-((2-fluoroethyl) (methyl)amino)piperidin-1-yl)phenyl) acrylamide] | ≤ 10 | ≤ 10 | 10 to 50 | ≤ 10
20 | C=CC(=O)Nc1cc(N2CCC(N(C)C3CCC3)CC2)ccc1Nc1ncc(C#N)c(Nc2ccccc2OC(C)C)n1 [Example 62, N-(2-((5-cyano-4-((2-isopropoxyphenyl)amino)pyrimidin-2-yl)amino)-5-(4-(cyclobutyl(methyl)amino)piperidin-1-yl)phenyl) acrylamide] | 10 to 50 | ≤ 10 | 10 to 50 | ≤ 10
